“Also recorded” adds a separate entry of the source.
Tests used:
Set-up in all cases: species or system Scherffelia dubia
[1] = test system: C-SdCen F109L; assay: ITC binding of target peptides to C-SdCen F109L; details: for factor of increase in change in enthalpy (ΔH) / factor of reduction of binding constant by F109L: EDTA; for TΔS / ΔG: F109L, no Ca2+ (EDTA 2 mM), pH 7.5; for TΔS: from ΔG = ΔH − TΔS; for ΔG: ΔG = −RTln(1/Ka); for ΔΔH: difference in binding enthalpy SdCen wt vs F109L; for ΔΔH / ΔΔG: EDTA 2 mM; for ΔΔG: difference in free energy SdCen wt vs F109L
[2] = test system: C-SdCen F109L-E144A; assay: ITC binding of target peptides to C-SdCen F109L-E144A; details: for TΔS: from ΔG = ΔH − TΔS; for ΔΔH: difference in binding enthalpy SdCen wt vs F109L-E144A; for ΔΔH / ΔΔG: EDTA 2 mM; for ΔΔG: difference in free energy SdCen wt vs F109L-E144A
[3] = test system: C-SdCen E144A; assay: ITC binding of target peptides to C-SdCen E144A; details: for effect of E144A mutation on binding (in words): E144A vs WT; for TΔS: from ΔG = ΔH − TΔS; for ΔΔH: difference in binding enthalpy SdCen wt vs E144A
[4] = test system: C-SdCen WT (C-terminal domain M93-F168 of SdCen); assay: ITC binding of target peptides to wild-type C-SdCen; details: WT; for TΔS: from ΔG = ΔH − TΔS; for effect of calcium on binding (in words): presence vs absence of calcium
[5] = EDTA, 30 °C to 37 °C, becoming more negative

677-SQHNRQLLRGALRRWK-692 [R18-Sfi1]
effect of F109L mutation on binding (in words) ([1]; F109L vs WT): reduced the binding; also recorded: decreased the binding | factor of increase in change in enthalpy (ΔH) ([1]; F109L vs WT, 30 °C): 1.4 | factor of reduction of binding constant by F109L ([1]; F109L vs WT, 30 °C): 6 | factor of increase in change in enthalpy (ΔH) ([1]; F109L vs WT, 37 °C): 1.4 | factor of reduction of binding constant by F109L ([1]; F109L vs WT, 37 °C): 6 | factor of decrease in Ka by F109L ([1]; F109L vs WT, temperature not stated): 6 | TΔS ([1]; 30 °C): -14.96 kcal/mol | ΔG ([1]; 30 °C): -8.24 kcal/mol | TΔS ([1]; 37 °C): -22.3 kcal/mol | ΔG ([1]; 37 °C): -8.1 kcal/mol | ΔΔH ([1]; 30 °C): -8.3 kcal/mol | ΔΔH ([1]; 37 °C): -6.69 kcal/mol | ΔΔG ([1]; 30 °C): -1.02 kcal/mol | ΔΔG ([1]; 37 °C): -1.21 kcal/mol | effect of F109L-E144A mutation on binding (in words) ([2]; F109L-E144A vs WT and single mutants): exhibited the same behavior as wild-type SdCen at both temperatures | TΔS ([2]; F109L-E144A, 30 °C, no Ca2+ (EDTA 2 mM), pH 7.5): -16.33 kcal/mol | ΔG ([2]; F109L-E144A, 30 °C, no Ca2+ (EDTA 2 mM), pH 7.5, ΔG = −RTln(1/Ka)): -8.07 kcal/mol | TΔS ([2]; F109L-E144A, 37 °C, no Ca2+ (EDTA 2 mM), pH 7.5): -18.24 kcal/mol | ΔΔH ([2]; 30 °C): -7.1 kcal/mol | ΔΔH ([2]; 37 °C): -10.66 kcal/mol | ΔΔG ([2]; 30 °C): -1.19 kcal/mol | ΔΔG ([2]; 37 °C): -1.12 kcal/mol | effect of E144A mutation on binding (in words) [3]: no effect on the binding of C-SdCen to R18-Sfi1 | effect of E144A mutation on binding (in words) ([3]; listed as Sfi1): had no effect on Sfi1 binding | TΔS ([3]; E144A, 30 °C, no Ca2+ (EDTA 2 mM), pH 7.5): -21.06 kcal/mol | ΔG ([3]; E144A, 30 °C, no Ca2+ (EDTA 2 mM), pH 7.5, ΔG = −RTln(1/Ka)): -9.25 kcal/mol | TΔS ([3]; E144A, 37 °C, no Ca2+ (EDTA 2 mM), pH 7.5): -26.88 kcal/mol | ΔΔH ([3]; 30 °C, EDTA 2 mM): -1.19 kcal/mol | ΔΔH ([3]; 37 °C, EDTA 2 mM): -0.87 kcal/mol | ΔΔG ([3]; difference in free energy SdCen wt vs E144A, 30 °C, EDTA 2 mM): -0.01 kcal/mol | effect of temperature increase (in words) ([4]; 30 °C to 37 °C, XPC vs Sfi1): a more pronounced effect on Sfi1 | TΔS ([4]; 30 °C, no Ca2+ (EDTA 2 mM), pH 7.5): -22.24 kcal/mol | ΔG ([4]; 30 °C, no Ca2+ (EDTA 2 mM), pH 7.5, ΔG = −RTln(1/Ka)): -9.26 kcal/mol | TΔS ([4]; 37 °C, no Ca2+ (EDTA 2 mM), pH 7.5): -27.78 kcal/mol | factor of decrease in binding on temperature increase ([4]; EDTA, 30 °C to 37 °C): 4 | factor of decrease in TΔS on temperature increase [4, 5]: 1.3 | factor of decrease in ΔH on temperature increase [4, 5]: 1.2 | effect of calcium on binding (in words) [4]: the presence of calcium enhanced the binding | effect of calcium on binding (in words) ([4]; listed as Sfi1): Calcium was not required for binding although its presence enhanced the binding

— paper PMC3871271 (FEBS Open Bio, 2013)
